From patent publication US20110117169A1, “METHODS AND COMPOSITIONS FOR CAPTURE OF CELLS” (AFFINERGY, INC., priority 2009, published 2011)
Ends that are not written are not given here. spacer = not defined here

Experiments:
hMSCs [1] = experiment: Binding of peptide-modified collagen to hMSCs, FACS with Neutravidin-PE; set-up: species or system human; details: 20,000 hMSCs, 1 hr on ice, serial dilution from 25 μM
Description: In a separate experiment, cell binding peptide SEQ ID NO: 4 was covalently attached to collagen as described herein and tested for its ability to bind hMSCs using an experimental setup similar to that described above. Briefly, collagen with covalently attached SEQ ID NO: 4 peptide was serial diluted (starting from 25 μM) and mixed with 20,000 hMSCs in 2% FBS/PBS. After 1 hr incubation on ice, cells were washed twice with 2% FBS/PBS and cells bound to the collagen with covalently attached SEQ ID NO: 4 peptide were detected with Neutravidin-PE. Cells were washed, transferred into 96-well plates for FACS analysis.

hMSCs [2] = experiment: Adherence of hMSCs to polypropylene in presence of peptide-modified collagen; format: cell-based, human; details: after binding in presence of the collagen
HUVECs [3] = experiment: HUVEC capture and retention on plates coated with peptide-modified collagen ([…]-GLO); format: cell-based, human
Description: After washing, 10,000 HUVECs were added per well in serum free medium for 30 min at 37° C. The plates were washed 3 times with PBS containing 2% FBS, and captured cells were detected with […]-GLO (INVITROGEN) using a luminometer and a standard curve. […] For FIG. 21B, the collagen was extracted in gel loading buffer, separated by PAGE, and total protein was stained with SIMPLYBLUE (INVITROGEN). […] Plates with captured HUVECs were prepared as described in FIG. 20A. […]

ECFCs = experiment: Capture of ECFCs in flow on coated coverslips (parallel plate flow chamber); format: cell-based, human; details: 2×10^6 ECFC circulated 2 h at 37° C.
Description: The ability of the collagen modified with endothelial cell binding peptide SEQ ID NO: 4 to capture ECFCs in flow was analyzed as follows. Glass coverslips were coated with unmodified collagen or cell binding peptide modified-collagen and mounted in a polycarbonate parallel plate flow chamber. PBS/10% FBS was circulated through a closed 150 ml system to block the coverslips. Approximately 2×10^6 ECFC were injected into the system and were circulated for 2 h at 37° C. Coverslips were washed in PBS to remove loosely adhering cells, the remaining cells on the coverslips were lysed in CELLTITERGLO (INVITROGEN, CA), and the cells enumerated by luminescence against a standard curve.

HUVECs [4] = experiment: Retention of HUVECs under shear stress on coated coverslips; format: cell-based, human
Description: The ability of the collagen modified with endothelial cell binding peptide SEQ ID NO: 4 to retain HUVECs under shear stress was analyzed as follows. Glass cover-slips were coated with peptide conjugated collagen or unmodified collagen and seeded with HUVECs. Coverslips were secured in a polycarbonate slide with six 1 cm diameter wells enabling simultaneous testing of materials. A closed loop peristaltic pump was used to expose the samples to flow conditions for 30 minutes at laminar flow rates up to 12 dynes/cm^2 in PBS containing 2% FBS. The number of cells retained on the cover slip was determined using […]-GLO (INVITORGEN) and a luminometer.

human dermal fibroblasts = experiment: Fibroblast binding to peptide-modified collagen coated plates; format: cell-based; details: for fibroblast binding compared to unmodified collagen: higher concentrations / FIG. 28 summary
Description: The experiment was performed according to the following procedure. Cell-binding peptide (SEQ ID NO: 4) was covalently attached to soluble collagen as described herein at Example 7. 96-well plates were coated with various amounts of unmodified or the peptide-modified collagen (177 μmol peptide/g collagen) over night at 4° C. Unbound collagen was removed and the plates were blocked for 1 h. After washing, 5,000 human dermal fibroblasts were added per well in serum-free medium for 30 min at 37° C. The plates were washed, and bound cells were detected with […]-GLO (PROMEGA) using a luminometer. At 0.0025 μg collagen, fibroblast binding was increased 11-fold for the peptide-modified collagen compared to unmodified collagen (see FIG. 28).

hMSCs [5] = experiment: hMSC attachment to PEEK discs in collagen solution ([…]-GLO); format: cell-based, human; details: 2 h at 37° C., highest concentration of collagen
Description: To test whether collagen having a covalently attached cell binding peptide could increase cell adhesion to PEEK discs, PEEK discs were coated with collagen and hMSC attachment was measured. Industrial-grade PEEK discs were obtained from […] POLYMERS, Inc Houston, Tex. The discs were machined with a steel punch for a 0.5 cm diameter (thickness of 0.125). Discs (n=2 per group) were coated by two methods. In the first method, the discs were incubated overnight with varying concentrations of cell binding peptide SEQ ID NO: 4-modified collagen (88.5 μmol peptide/g of collagen). The discs were washed to remove unattached peptide and collagen, and the attached biotinylated peptide was detected with Neutravidin-HRP in an ELISA assay. […] In the second method, uncoated PEEK discs were placed in a solution of unmodified or peptide-modified collagen and hMSCs. After 2 h at 37° C., discs were moved to a new plate and washed with PBS to remove unbound cells. The number of attached cells was counted by […]-GLO. […] On the other hand, peptide-conjugated collagen increased cell attachment relative to both uncoated and collagen-coated PEEK. At the highest concentration of peptide-modified collagen, 26% of the cells were attached, whereas only 9% of cells attached to the uncoated discs and 11% to the discs coated with unmodified collagen.

peptide-modified collagen: SEQ ID NO: 4 with spacer and lysine covalently attached to soluble bovine type I collagen via BS^3 crosslinking reagent (SSFWDVCQGDGTCYGGGSR-{spacer-Lys}; cysteine pairing not given here; reading uncertain; also: covalently attached to soluble bovine type I collagen via BS3 crosslinker, spacer not given here)
increase in fluorescence signal compared to control (hMSCs [1]): ~100 fold | hMSCs retained on the walls of polypropylene plates (hMSCs [2]): ~80% | HUVECs retained compared to unmodified collagen after agitation (HUVECs [3]; 1 hour with agitation in PBS containing 2% FBS): 7 fold | increase in HUVEC retention over unmodified collagen (HUVECs [3]; 10,000 HUVECs per well, serum free medium, 30 min at 37° C.): 3 fold | ECFCs captured in flow compared to unmodified collagen (ECFCs): about 20 fold | effect of shear stress on cell capture (HUVECs [4]; 30 minutes, laminar flow up to 12 dynes/cm^2): did not significantly affect cell capture | HUVECs captured compared to unmodified collagen (HUVECs [4]; coated glass cover-slips, PBS containing 2% FBS): about 3 fold | increase in fibroblast binding compared to unmodified collagen (human dermal fibroblasts; 0.0025 μg collagen, 5,000 fibroblasts per well, 30 min at 37° C.): 11 fold | fibroblast binding compared to unmodified collagen (human dermal fibroblasts; listed as SEQ ID NO: 4 peptide-modified collagen): Increased cell binding | fibroblast binding compared to unmodified collagen (human dermal fibroblasts; listed as cell binding peptide (SEQ ID NO: 4)-modified collagen): enhanced binding | cells attached to PEEK discs (hMSCs [5]): 26%
